# Measurements taken from patent publication US20060258746A1, “Oral medicament for improvement in going to sleep or waking” (Kyowa Hakko Kogyo Co., Ltd., priority 2005, published 2006).
# Key:
# subjects = assay: Test Example 1: intake of ornithine tablets, improvement in waking compared with before administration; type: in vivo, human
# normal subjects = assay: Test Example 2: double blind parallel group test against tablets without ornithine, going to sleep and waking rated by Visual Analogue Scale (VAS) method; type: in vivo, human; settings: 6 tablets of example 1 a day for 3 weeks; 7 subjects per group; 45 to 64 year
# Description: Six tablets of example 1 (the tablet containing ornithine) or 6 tablets of comparative example 1 (the tablet not containing ornithine) were administered to two groups with 7 subjects out of 14 normal subjects of each male and female between 45 to 64 year a day for 3 weeks.
# Before the administration and just after the administration, the improvements in going to sleep and waking of each subject were evaluated using Visual Analogue Scale (VAS) method.
# Specifically each end of the segment has a criterion of expression. Referring to FIG. 1, each subject marked somewhere in the line, corresponding to each term of the questionnaires. The distance (mm) from the left end of the line to the marked point was measured and the difference between before and after the test was calculated. The difference by the value before the test was shown in the percentage calculated; and each average value and standard deviation for each group were calculated. Further the average improvement ratio (%) was the value obtained by subtracting the average value of the placebo group from the average value of ornithine group. Further, it was confirmed that there was no difference between two groups before the administration test.
# Further the test was carried out under a random assignment and the comparison between the double blind parallel groups was carried out. […]
compound,measurement,setting,value
NCCC[C@H](N)C(=O)O [ornithine],effect on the waking process (conclusion of test result),subjects; oral intake of ornithine tablets,improved the waking process
same,subjects who showed an improvement in waking,"subjects; oral, ornithine taken just before going to sleep",3 subjects out of the 6 subjects
same,effect of intake just before going to sleep (conclusion of test result),"subjects; oral, taken just before going to sleep",effective
same,"improvement in going to sleep (VAS, average improvement ratio vs placebo group, FIG. 2)",normal subjects,improvement in going to sleep were obtained
same,"improvement in the waking process (VAS, average improvement ratio vs placebo group, FIG. 2)",normal subjects,improvement in the waking process was evident
